{Chol} = cholesterol
Tests used:
Assay in all cases: Cell viability assay (ATP quantitation)
[1] = tested on: D04 melanoma cell line; format: cell-based, human; settings: 50 nM, 5 days (120 hrs), vs non-targeting control
Method: (§1) EsiRNA, siRNA and ASO GapmeRs were transfected in a final concentration of 50 nM unless mentioned otherwise and the transfection reagent Lipofectamine 3000 (2 ul/ml) was added according to the manufacturer's instructions.
(§2) Dependent on cell doubling time, 0.7-2×10^^3 cells were seeded in 96 well plates. 1 day after seeding cells were incubated in media with oligonucleotide concentration and/or MEKi and transfection reagent. 3 (synergy experiments) or 5 (solely ASO) days after transfection Total luminescence was measured on the SynergyHT plate reader (BioTek) using Gen5 software.

[2] = tested on: Sk-Mel-2 melanoma cell line; format: cell-based, human; settings: 50 nM, 5 days (120 hrs), vs non-targeting control
Method: as §1, §2

[3] = tested on: WM3629 melanoma cell line; format: cell-based, human; settings: 50 nM, 5 days (120 hrs), vs non-targeting control
Method: as §1, §2

[4] = tested on: MM415 melanoma cell line; format: cell-based, human; settings: 50 nM, 5 days (120 hrs), vs non-targeting control
Method: as §1, §2

[5] = tested on: AV5 primary melanoma cell line; format: cell-based, human; settings: 50 nM, 5 days (120 hrs), vs non-targeting control
Method: as §1, §2

[6] = tested on: Sk-Mel-28 melanoma cell line; format: cell-based, human; settings: 50 nM, 5 days (120 hrs), vs non-targeting control
Method: as §1, §2

[7] = tested on: Sk-N-AS Neuroblastoma cell line; format: cell-based; settings: 50 nM, 5 days, vs non-targeting control
Method: as §1, §2

[8] = tested on: MaMel30 melanoma cell line; format: cell-based; settings: 50 nM, 5 days, vs non-targeting control
Method: as §1, §2

[9] = tested on: hepatocellular carcinoma cell line HepG2; format: cell-based; settings: 50 nM, 120 hrs, Lipofectamine3000 2 ul/ml, vs non-targeting control ASO
Method: as §1, §2
(§3) Cell viability was compared to treatment with non-targeting control ASO-treatment. Lipofectamine3000 concentration was 2 ul/ml.

[10] = tested on: sarcoma cell line SK-LMS-1; format: cell-based; settings: SK-LMS-1 sarcoma; 50 nM, 120 hrs; Lipofectamine3000 2 ul/ml; vs non-targeting control ASO
Method: as §1, §2, §3

Measured: cell viability decrease

5′-GCCAACAGCAUGUCAAUUCAGUGAT-3′ (chain 2 GACGGUUGUCGUACAGUUAAGUCACUA; chemistry not given here; one strand is listed 3' to 5') [SEQ ID NO: 43]
significant cell viability decrease: [1] | [2] | [3]

GGAAAGGCGAGCUGAGCAUUU (antisense AUGCUCAGCUCGCCUUUCCUU; listed as RNA, chemistry not given here) [SEQ ID NO: 37, siRNA targeting ARF-AS1 isoform 1]
significant cell viability decrease: [1]

5′-GGUAAAAACAUGAAGCUAAUAGUUA-3′ (chain 2 ACCCAUUUUUGUACUUCGAUUAUCAAU; listed as RNA, chemistry not given here; one strand is listed 3' to 5') [SEQ ID NO: 42]
significant cell viability decrease: [1] | [4] | [2]

AGCAAUGACUCCUGAACAUUU (antisense AUGUUCAGGAGUCAUUGCUUU; siRNA; 5' phosphate on antisense strand, other chemistry not given here) [SEQ ID NO: 27, siRNA targeting RP11-7011.3]
significant cell viability decrease: [5] | [1] | [6]

5′-UCACAAAGAGAGACAGGAAUU-3′ (chain 2 UUCCUGUCUCUCUUUGUGAUU; listed as RNA, chemistry not given here) [SEQ ID NO:46]
significant cell viability decrease: [1] | [4]

AGATGGCTCTGTAAGA (QIAGEN GapmeR, modification pattern not given here) [SEQ ID NO: 49, Antisense oligonucleotide targeting SNX10]
significant cell viability decrease: [1]

AAGTCCTTGGTTGATG (QIAGEN GapmeR, modification pattern not given here) [SEQ ID NO: 21, Antisense oligonucleotide targeting AL157871.4-201]
significant cell viability decrease: [1] | [4] | [2] | [6] | [7]

ATTGATGAAAGGTGAA (QIAGEN GapmeR, modification pattern not given here) [SEQ ID NO: 19, Antisense oligonucleotide targeting ARF-AS1-201, ARF-AS1-202 and ARF-AS1-203]
significant cell viability decrease: [1] | [4] | [2] | [6] | [8] | [7]

UGGAUAAUGAUAAGGUCUAUU (antisense UAGACCUUAUCAUUAUCCAUU; listed as RNA, chemistry not given here) [SEQ ID NO: 39, siRNA targeting AL157871.4-201]
significant cell viability decrease: [1]

GCGTCAACTAAAGCAA (QIAGEN GapmeR, modification pattern not given here) [SEQ ID NO: 20, Antisense oligonucleotide targeting ARF-AS1-202 and ARF-AS1-203]
significant cell viability decrease: [1] | [4] | [2] | [6] | [7]

CCCAGAAGCUAGAGGUAAAUU (antisense UUUACCUCUAGCUUCUGGGUU; listed as RNA, chemistry not given here) [SEQ ID NO: 23, siRNA targeting BX470102.3-008]
significant cell viability decrease: [5] | [1] | [6]

GAGUAACAGAGGAGAACUUUU (antisense AAGUUCUCCUCUGUUACUCUU; siRNA; 5' phosphate on antisense strand, other chemistry not given here) [SEQ ID NO: 25, siRNA targeting both isoforms of AC004540.4]
significant cell viability decrease: [5]

GACTGGAGATAATTAA-Cholesterol (3' {Chol}, sugars by position and backbone not given here; GapmeR, chemically modified) [SEQ ID NO:47, TRASH targeting ASO with additional Cholesterol modification]
significant cell viability decrease: [1] | [4] | [9] | [10]

GTAAGTAGGAGCTGTG (QIAGEN GapmeR, modification pattern not given here) [SEQ ID NO: 22, Antisense oligonucleotide targeting AL157871.4-201]
significant cell viability decrease: [1] | [4] | [2] | [6] | [8] | [7]

5′-AUUUCAUGUCUGAAGCAAUUCUACT-3′ (chain 2 AAUAAAGUACAGACUUCGUUAAGAUGA; chemistry not given here; one strand is listed 3' to 5') [SEQ ID NO: 44]
significant cell viability decrease: [1] | [4] | [2] | [3]

Reference: US20250197864A1, “LNCRNA TRANSCRIPTS IN MELANOMAGENESIS” (The Regents of the University of California, priority 2021, published 2025)
